Experimental data: ChEMBL document CHEMBL1800027, “Imidazolopiperazines: hit to lead optimization of new antimalarial agents” (J Med Chem, 2011)
Each block holds one compound with its values, some of them ahead of it.

Experiments:
Plasmodium falciparum [1] = assay: Antimalarial activity against Plasmodium falciparum 3D7 infected in human erythrocytes assessed as decrease in parasitemia after 72 hrs; assay type: functional, organism-based; conditions: 3D7, 72 h
Plasmodium falciparum [2] = assay: Antimalarial activity against Plasmodium falciparum W2 infected in human erythrocytes assessed as decrease in parasitemia after 72 hrs; assay type: functional, organism-based; conditions: W2, 72 h
in vitro [3] = conditions: rat
Description: Metabolic stability in rat hepatic microsomes assessed as extraction ratio by LC/MS/MS analysis

Plasmodium berghei [4] = assay: Antimalarial activity against GFP-tagged Plasmodium berghei ANKA infected in NMRI mouse assessed as mouse survival at 30 mg/kg, po administered as single dose 24 hrs post infection measured 72 hrs post infection
in vivo [5] = conditions: female, CD1, mouse, plasma, po, 30 mg/kg
in vitro [6] = conditions: human
Description: Metabolic stability in human hepatic microsomes assessed as extraction ratio by LC/MS/MS analysis

Plasmodium berghei [7] = assay: Antimalarial activity against GFP-tagged Plasmodium berghei ANKA infected in NMRI mouse assessed as mouse survival at 100 mg/kg, po administered as single dose 24 hrs post infection measured on day 30 post infection
in vivo [8] = conditions: female, CD1, mouse, plasma, iv, 5 mg/kg
in vivo [9] = conditions: female, CD1, mouse, po, 30 mg/kg
Description: Half life in female CD1 mouse at 20 mg/kg, po by LC/MS/MS analysis

[10] = Tmax in female CD1 mouse at 30 mg/kg, po by LC/MS/MS analysis; conditions: in vivo
in vitro [11] = conditions: mouse
Description: Metabolic stability in mouse hepatic microsomes assessed as extraction ratio by LC/MS/MS analysis

in vivo [12] = conditions: female, CD1, mouse, iv, 5 mg/kg
Description: Volume of distribution in female CD1 mouse at 5 mg/kg, iv by LC/MS/MS analysis

in vivo [13] = conditions: female, CD1, mouse, iv, 5 mg/kg; remark: listed apart in the source
Description: Clearance in female CD1 mouse at 5 mg/kg, iv by LC/MS/MS analysis

[14] = target: Voltage-gated inwardly rectifying potassium channel KCNH2 (Homo sapiens, UniProt Q12809)
Voltage-gated inwardly rectifying potassium channel KCNH2, sequence (Q12809 whole entry): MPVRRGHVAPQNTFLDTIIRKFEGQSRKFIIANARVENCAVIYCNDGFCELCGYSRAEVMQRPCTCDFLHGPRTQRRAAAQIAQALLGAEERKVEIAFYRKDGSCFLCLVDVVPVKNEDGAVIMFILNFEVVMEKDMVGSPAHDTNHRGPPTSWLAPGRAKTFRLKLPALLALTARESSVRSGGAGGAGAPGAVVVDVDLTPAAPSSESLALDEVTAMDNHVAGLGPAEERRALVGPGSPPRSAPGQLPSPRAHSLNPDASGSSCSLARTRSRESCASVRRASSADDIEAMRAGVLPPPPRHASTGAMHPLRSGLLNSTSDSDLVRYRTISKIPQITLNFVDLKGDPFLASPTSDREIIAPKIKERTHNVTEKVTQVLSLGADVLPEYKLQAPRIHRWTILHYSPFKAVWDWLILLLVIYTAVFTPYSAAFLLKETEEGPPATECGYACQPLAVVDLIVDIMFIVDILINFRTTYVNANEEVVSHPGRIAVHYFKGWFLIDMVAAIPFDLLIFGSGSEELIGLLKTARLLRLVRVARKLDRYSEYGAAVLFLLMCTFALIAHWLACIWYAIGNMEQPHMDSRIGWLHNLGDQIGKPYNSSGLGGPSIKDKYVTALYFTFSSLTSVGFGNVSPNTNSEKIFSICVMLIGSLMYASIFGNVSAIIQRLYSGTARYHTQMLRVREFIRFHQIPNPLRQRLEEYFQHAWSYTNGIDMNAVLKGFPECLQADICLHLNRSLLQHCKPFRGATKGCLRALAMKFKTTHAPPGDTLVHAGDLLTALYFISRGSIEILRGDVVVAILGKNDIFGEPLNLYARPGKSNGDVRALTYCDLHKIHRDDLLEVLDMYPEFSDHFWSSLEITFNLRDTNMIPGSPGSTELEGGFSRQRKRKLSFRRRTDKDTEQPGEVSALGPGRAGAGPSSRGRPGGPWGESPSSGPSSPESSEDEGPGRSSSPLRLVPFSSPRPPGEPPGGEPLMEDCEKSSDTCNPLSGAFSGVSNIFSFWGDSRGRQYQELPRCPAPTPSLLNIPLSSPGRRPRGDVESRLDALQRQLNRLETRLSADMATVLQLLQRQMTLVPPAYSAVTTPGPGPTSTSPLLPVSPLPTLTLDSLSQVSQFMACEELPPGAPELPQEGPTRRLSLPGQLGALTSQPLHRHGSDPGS
Description: Inhibition of human ERG expressed in CHO cells by Q-patch assay

in vivo [15] = conditions: female, CD1, mouse, iv, 5 mg/kg; remark: listed apart in the source
Description: Half-life in female CD1 mouse at 5 mg/kg, iv by LC/MS/MS analysis

[16] = pampa
Description: Permeability of the compound assessed as amount of compound absorbed by PAMPA method

in vitro [17] = conditions: human, Caco-2
Description: Apparent permeability from apical to basolateral side in human Caco2 cells by LC/MS analysis

[18] = Cmax in female CD1 mouse at 30 mg/kg, po by LC/MS/MS analysis; conditions: in vivo
Plasmodium berghei [19] = assay: Antimalarial activity against GFP-tagged Plasmodium berghei ANKA infected in NMRI mouse assessed as reduction in parasitemia at 30 mg/kg, po QD administered 24 hrs post infection for 3 days measured on day 4 post infection; assay type: functional; design: scale not given: the % may be the effect or the level left
in vitro [20] = conditions: human, Caco-2; remark: listed apart in the source
Description: Apparent permeability from basolateral to apical side in human Caco2 cells by LC/MS analysis

[21] = Oral bioavailability in female CD1 mouse at 30 mg/kg by LC/MS/MS analysis; conditions: female, CD1, mouse, in vivo
[22] = Selectivity index, ratio TC50 for human HeLa cells to IC50 for Plasmodium falciparum; assay type: functional
[23] = Selectivity index, ratio TC50 for human HuH7 cells to IC50 for Plasmodium falciparum; assay type: functional, Huh-7
[24] = Cytotoxicity against human HuH7 cells; assay type: cell-based; conditions: Huh-7 cells, read-out: TC50 (the source's name)
Plasmodium berghei [25] = assay: Antimalarial activity against GFP-tagged Plasmodium berghei ANKA infected in NMRI mouse assessed as reduction in parasitemia at 30 mg/kg, po administered as single dose 24 hrs post infection measured 72 hrs post infection; assay type: functional; design: scale not given: the % may be the effect or the level left
Plasmodium berghei [26] = assay: Antimalarial activity against GFP-tagged Plasmodium berghei ANKA infected in NMRI mouse assessed as mouse survival at 30 mg/kg, po QD administered 24 hrs post infection for 3 days measured on day 30 post infection; assay type: functional

SMILES: CC(C)(N)C(=O)N1CCn2c(nc(-c3ccc(F)cc3)c2Nc2ccc(Cl)c(F)c2)C1
hepatic extraction ratio (in vitro [3]; microsomes): 0.67
Survival (Plasmodium berghei [4]): 7 days
AUC(0-inf) (in vivo [5]): 36.7 µM·h
hepatic extraction ratio (in vitro [6]; microsomes): 0.48
Survival (Plasmodium berghei [7]): 11 days
AUC(0-inf) (in vivo [8]): 25.5 µM·h
half-life (in vivo [9]): 9.1 h
Tmax [10]: 2 h
hepatic extraction ratio (in vitro [11]; microsomes): 0.76
Vd (in vivo [12]): 1.7 L/kg
clearance (in vivo [13]): 5.8 mL/min/kg
IC50 [14]: 5600 nM
half-life (in vivo [15]): 7.8 h
permeability [16]: 94%
Papp A→B (in vitro [17]): 0.84 ×10⁻⁶ cm/s
Cmax [18]: 3320 nM
IC50 (Plasmodium falciparum [1]): 40 nM
IC50 (Plasmodium falciparum [2]): 52 nM
Activity (Plasmodium berghei [19]): 99.8%
Papp B→A (in vitro [20]): 0.87 ×10⁻⁶ cm/s
bioavailability [21]: 24%

SMILES: COc1ccc(-c2nc3n(c2Nc2ccc(F)cc2)CCN(C(=O)CN)C3)cc1
IC50 (Plasmodium falciparum [1]): 2270 nM
IC50 (Plasmodium falciparum [2]): 1700 nM

SMILES: Fc1ccc(Nc2c(-c3ccc(F)cc3)nc3n2CCNC3)cc1
IC50 (Plasmodium falciparum [1]): 200 nM
IC50 (Plasmodium falciparum [2]): 175 nM

SMILES: NCC(=O)N1CCn2c(nc(-c3ccc(F)cc3)c2Nc2ccc(F)c(F)c2)C1
hepatic extraction ratio (in vitro [3]; liver microsomes): 0.38
hepatic extraction ratio (in vitro [6]; liver microsomes): 0.21
hepatic extraction ratio (in vitro [11]; liver microsomes): 0.21
Papp A→B (in vitro [17]): 0.99 ×10⁻⁶ cm/s
IC50 (Plasmodium falciparum [1]): 30 nM
IC50 (Plasmodium falciparum [2]): 23 nM
Papp B→A (in vitro [20]): 2.99 ×10⁻⁶ cm/s

SMILES: Fc1ccc(Nc2c(-c3ccc(F)cc3)nc3cnccn23)cc1
IC50 (Plasmodium falciparum [1]): > 10 nM
IC50 (Plasmodium falciparum [2]): 5520 nM

SMILES: NCC(=O)N1CCn2c(nc(-c3cccc(F)c3)c2Nc2ccc(F)cc2)C1
Survival (Plasmodium berghei [4]): 6 days
AUC(0-inf) (in vivo [5]): 1.33 µM·h
Survival (Plasmodium berghei [7]): 10 days
AUC(0-inf) (in vivo [8]): 1.23 µM·h
half-life (in vivo [9]): 1 h
Tmax [10]: 2 h
hepatic extraction ratio (in vitro [11]; liver microsomes): 0.31
Vd (in vivo [12]): 21.6 L/kg
Activity (Plasmodium berghei [25]): 86%
clearance (in vivo [13]): 192 mL/min/kg
IC50 [14]: > 30000 nM
half-life (in vivo [15]): 1.8 h
Papp A→B (in vitro [17]): 0.56 ×10⁻⁶ cm/s
Cmax [18]: 417 nM
IC50 (Plasmodium falciparum [1]): 10 nM
IC50 (Plasmodium falciparum [2]): 30 nM
Activity (Plasmodium berghei [19]): 99.7%
Papp B→A (in vitro [20]): 2.32 ×10⁻⁶ cm/s
bioavailability [21]: 18%

SMILES: CC(C)(N)C(=O)N1CCn2c(nc(-c3ccc(F)cc3)c2Nc2cccnc2)C1
IC50 (Plasmodium falciparum [1]): 1410 nM
IC50 (Plasmodium falciparum [2]): 3320 nM

SMILES: CCc1nc(N)nc(N)c1-c1ccc(Cl)cc1 [PYRIMETHAMINE]
IC50 (Plasmodium falciparum [2]): > 10000 nM

SMILES: CC(C)(N)C(=O)N1CCn2c(nc(-c3ccc(F)cc3)c2Nc2cc(F)cc(F)c2)C1
IC50 (Plasmodium falciparum [1]): 220 nM
IC50 (Plasmodium falciparum [2]): 244 nM

SMILES: CC(C)(N)C(=O)N1CCn2c(nc(-c3ccccc3F)c2Nc2ccc(F)cc2)C1
IC50 (Plasmodium falciparum [1]): 1390 nM
IC50 (Plasmodium falciparum [2]): 1280 nM

SMILES: CC(C)CC(N)C(=O)N1CCn2c(nc(-c3ccccc3)c2Nc2ccc3c(c2)OCO3)C1 (racemic)
Selectivity Index [22]: >20
Selectivity Index [23]: >20
CC50 [24]: > 10000 nM
IC50 (Plasmodium falciparum [1]): 116 nM
IC50 (Plasmodium falciparum [2]): 119 nM

SMILES: CCN(CC)CCCC(C)Nc1ccnc2cc(Cl)ccc12 (centres undefined) [CHLOROQUINE]
Survival (Plasmodium berghei [4]): 8.7 days
Survival (Plasmodium berghei [7]): 12 days
Survival (Plasmodium berghei [26]): 18.8 days
Activity (Plasmodium berghei [19]): >99.9%

SMILES: C[C@H]1[C@H](OC(=O)CCC(=O)O)O[C@@H]2O[C@@]3(C)CC[C@H]4[C@H](C)CC[C@@H]1[C@@]24OO3 [ARTESUNATE]
Survival (Plasmodium berghei [4]): 7.2 days
Survival (Plasmodium berghei [7]): 6.7 days
Activity (Plasmodium berghei [25]): 89%
Activity (Plasmodium berghei [19]): 97%

SMILES: Cc1ccc(Nc2c(-c3ccc(F)c(F)c3)nc3n2CCN(C(=O)C(C)(C)N)C3)cc1
IC50 (Plasmodium falciparum [1]): 60 nM
IC50 (Plasmodium falciparum [2]): 50 nM

SMILES: CC(C)(N)C(=O)N1CCn2c(nc(-c3ccc(F)cc3)c2NC2CCCCC2)C1
IC50 (Plasmodium falciparum [1]): 9610 nM
IC50 (Plasmodium falciparum [2]): 5980 nM

SMILES: NCC(=O)N1CCn2c(nc(-c3ccc(F)cc3)c2Nc2cccc(F)c2)C1
IC50 (Plasmodium falciparum [1]): 50 nM
IC50 (Plasmodium falciparum [2]): 34 nM

SMILES: CC(C)(N)C(=O)N1CCn2c(nc(-c3ccc(F)cc3)c2Nc2ccc(F)cc2F)C1
IC50 (Plasmodium falciparum [1]): 110 nM
IC50 (Plasmodium falciparum [2]): 90 nM

SMILES: C[C@@H]1CC[C@H]2[C@@H](C)C(=O)O[C@@H]3O[C@@]4(C)CC[C@@H]1[C@]32OO4 [ARTEMISININ]
IC50 (Plasmodium falciparum [1]): 12 nM

Continued, in another order:

IC50 (Plasmodium falciparum [1]): 70 nM
IC50 (Plasmodium falciparum [2]): 75 nM
SMILES: NCCC(=O)N1CCn2c(nc(-c3ccc(F)cc3)c2Nc2ccc(F)cc2)C1

IC50 (Plasmodium falciparum [1]): 70 nM
IC50 (Plasmodium falciparum [2]): 59 nM
SMILES: N[C@H](Cc1ccccc1)C(=O)N1CCn2c(nc(-c3ccc(F)cc3)c2Nc2ccc(F)cc2)C1

IC50 (Plasmodium falciparum [1]): 235 nM
IC50 (Plasmodium falciparum [2]): 271 nM
SMILES: NC(Cc1ccccc1)C(=O)N1CCn2c(nc(-c3ccccc3)c2Nc2ccc3c(c2)OCO3)C1 (racemic)
Selectivity Index [22]: >20
Selectivity Index [23]: >20
CC50 [24]: > 10000 nM

IC50 (Plasmodium falciparum [1]): 90 nM
IC50 (Plasmodium falciparum [2]): 64 nM
SMILES: C[C@H](N)C(=O)N1CCn2c(nc(-c3ccc(F)cc3)c2Nc2ccc(F)cc2)C1

hepatic extraction ratio (in vitro [3]; liver microsomes): 0.63
hepatic extraction ratio (in vitro [6]; liver microsomes): 0.55
hepatic extraction ratio (in vitro [11]; liver microsomes): 0.17
permeability [16]: 52%
Papp A→B (in vitro [17]): 0.44 ×10⁻⁶ cm/s
IC50 (Plasmodium falciparum [1]): 10 nM
IC50 (Plasmodium falciparum [2]): 9 nM
Papp B→A (in vitro [20]): 1.25 ×10⁻⁶ cm/s
SMILES: NCC(=O)N1CCn2c(nc(-c3ccc(F)cc3)c2Nc2ccc(Cl)cc2)C1

IC50 (Plasmodium falciparum [1]): 30 nM
IC50 (Plasmodium falciparum [2]): 24 nM
SMILES: CC(C)[C@H](N)C(=O)N1CCn2c(nc(-c3ccc(F)cc3)c2Nc2ccc(F)cc2)C1

IC50 (Plasmodium falciparum [1]): 110 nM
IC50 (Plasmodium falciparum [2]): 121 nM
SMILES: N[C@@H](Cc1ccccc1)C(=O)N1CCn2c(nc(-c3ccc(F)cc3)c2Nc2ccc(F)cc2)C1

IC50 (Plasmodium falciparum [1]): 200 nM
IC50 (Plasmodium falciparum [2]): 168 nM
SMILES: CC(C)(N)C(=O)N1CCn2c(nc(-c3ccccc3)c2Nc2ccc(F)cc2)C1

AUC(0-inf) (in vivo [5]): 0.965 µM·h
AUC(0-inf) (in vivo [8]): 1.07 µM·h
half-life (in vivo [9]): 4.2 h
Tmax [10]: 2 h
Vd (in vivo [12]): 12.3 L/kg
clearance (in vivo [13]): 189 mL/min/kg
half-life (in vivo [15]): 2.7 h
permeability [16]: 52%
Papp A→B (in vitro [17]): 0.7 ×10⁻⁶ cm/s
Cmax [18]: 234 nM
IC50 (Plasmodium falciparum [1]): 20 nM
IC50 (Plasmodium falciparum [2]): 23 nM
bioavailability [21]: 15%
SMILES: NCC(=O)N1CCn2c(nc(-c3ccc(F)cc3)c2Nc2ccc(F)cc2)C1

IC50 (Plasmodium falciparum [1]): 660 nM
IC50 (Plasmodium falciparum [2]): 437 nM
SMILES: NCC(=O)N1CCn2c(nc(-c3ccc(Cl)cc3)c2Nc2ccc(F)cc2)C1

IC50 (Plasmodium falciparum [1]): 3140 nM
IC50 (Plasmodium falciparum [2]): 3360 nM
SMILES: Cc1ccc(-c2nc3n(c2Nc2ccc(F)cc2)CCN(C(=O)CN)C3)cc1
